Among the data in DBAASP are MIC values, retold here.

Broadly, the MIC is the lowest concentration that inhibits growth of the organism. A lower MIC goes with inhibition by little substance.

Among the test systems are Vibrio alginolyticus; Escherichia coli K91BK; Bacillus cereus AS1.126; Escherichia coli AS1.349.
Common to all, as to experiment: ≥ marks a high value that may be exact or a test limit, other limits are often not marked, values filed in µg/mL are converted to µM
The subject of assay [1] is Vibrio harveyi BCRC 13812.
In assay [2] the test system is Staphylococcus aureus BCRC 10780.
In assay [3] the test system is Staphylococcus sp. BCRC 10451.
Assay [4] deals with Streptococcus pneumoniae BCRC 10794.
For assay [5], the system named is Staphylococcus aureus ATCC 33591.
In assay [6] the test system is Staphylococcus aureus ATCC 700699.
The test system of assay [7] is Pseudomonas aeruginosa ATCC 27853.
Assay [8] deals with Staphylococcus aureus ATCC 29213.
For assay [9], the system named is Escherichia coli ATCC 25922.
Assay [10] deals with Klebsiella pneumoniae ATCC 700603.
The subject of assay [11] is Bacillus subtilis var. niger ATCC 9372.
In assay [12] the test system is Bacillus anthracis Sterne 34F2.
Assay [13] deals with Burkholderia thailandensis.
Assay [14] concerns Bacillus subtilis ATCC 9372.
The test system of assay [15] is Enterococcus faecalis CGMCC 1.595.
In assay [16] the test system is Enterobacter cloacae CGMCC 1.58.
Assay [17] deals with Staphylococcus epidermidis CICC 23664.
Assay [18] relates to Enterococcus faecium CGMCC 1.2334.
Assay [19] concerns Staphylococcus aureus AS1.72.
Assay [20] relates to Proteus mirabilis CICC 22931.
Assay [21] deals with Klebsiella pneumoniae subsp. pneumoniae CGMCC 1.176.
The test system of assay [22] is Pseudomonas aeruginosa CGMCC 1.860.
Assay [23] has as its system Listeria monocytogenes LO28.
In assay [24] the test system is Cronobacter sakazakii DPC 6440.

Molecules are shown by their SMILES. Converted amounts (≈) assume the structure as drawn.

As for `CC[C@H](C)[C@H](NC(=O)[C@H](Cc1ccccc1)NC(C)=O)C(=O)N[C@@H](Cc1ccccc1)C(=O)N[C@@H](Cc1cnc[nH]1)C(=O)N[C@H](C(=O)N[C@H](C(=O)N[C@@H](CCCCN)C(=O)NCC(=O)N[C@@H](CC(C)C)C(=O)N[C@@H](Cc1ccccc1)C(N)=O)[C@@H](C)CC)[C@@H](C)CC` [FIFHIIKGLF], the MIC (in the assay on Vibrio alginolyticus; in assay [1]; in [2]; in [3]) was 5.06 µM (≈ 6.46 µg/mL) each time.
Take `CC[C@H](C)[C@H](NC(=O)[C@H](Cc1ccccc1)NC(=O)CNC(C)=O)C(=O)N[C@@H](Cc1ccccc1)C(=O)N[C@@H](Cc1cnc[nH]1)C(N)=O` [GFIFH]: the MIC in [4] and in [2] was ≥ 161 µM in each case.
On to `CC[C@H](C)[C@H](NC(=O)[C@H](CC(=O)O)NC(=O)[C@H](CCCCN)NC(=O)[C@H](C)NC(=O)[C@H](C)NC(=O)CNC(=O)[C@H](CCCCN)NC(=O)[C@H](C)NC(=O)[C@@H](NC(=O)[C@H](CC(=O)O)NC(=O)[C@@H](NC(=O)[C@@H](NC(=O)CN)C(C)C)C(C)C)[C@@H](C)CC)C(=O)N[C@@H](C)C(=O)NCC(=O)N[C@@H](Cc1cnc[nH]1)C(=O)N[C@@H](CC(C)C)C(=O)N[C@@H](C)C(=O)N[C@@H](CO)C(=O)N[C@@H](CCCCN)C(=O)N[C@H](C(=O)N[C@@H](CCSC)C(=O)N[C@@H](CC(N)=O)C(=O)N[C@@H](CCCCN)C(=O)N[C@@H](CC(C)C)C(N)=O)C(C)C` [GVVDIAKGAAKDIAGHLASKVMNKL], for which the MIC in assay [5] was ≥ 100 µM; in assay [6] it was ≥ 100 µM; in assay [7], > 100 µM; in assay [8], > 100 µM; in assay [9], > 100 µM; in [10] it was > 100 µM.
In the case of `CC(=O)NCC(=O)N[C@@H](Cc1c[nH]c2ccccc12)C(=O)NCC(=O)N[C@@H](CO)C(=O)N[C@@H](Cc1ccccc1)C(=O)N[C@@H](Cc1ccccc1)C(=O)N[C@@H](CCCCN)C(=O)N[C@@H](CCCCN)C(=O)N[C@@H](C)C(=O)N[C@@H](C)C(=O)N[C@@H](Cc1cnc[nH]1)C(=O)N[C@H](C(=O)NCC(=O)N[C@@H](CCCCN)C(=O)N[C@@H](Cc1cnc[nH]1)C(=O)N[C@H](C(=O)NCC(=O)N[C@@H](CCCCN)C(=O)N[C@@H](C)C(=O)N[C@@H](C)C(=O)N[C@@H](CC(C)C)C(=O)N[C@H](C(=O)N[C@@H](Cc1cnc[nH]1)C(=O)N[C@@H](Cc1ccc(O)cc1)C(=O)N[C@@H](CC(C)C)C(N)=O)[C@@H](C)O)C(C)C)C(C)C` [GWGSFFKKAAHVGKHVGKAALTHYL], the MIC in assay [11] was 17.7 µM (≈ 48.7 µg/mL); in the assay on Escherichia coli K91BK it was ≥ 100 µM; in [12] it was ≥ 79.4 µM.
For `CC[C@H](C)[C@H](NC(=O)[C@H](CCCN=C(N)N)NC(=O)[C@H](CC(C)C)NC(=O)[C@H](CCC(N)=O)NC(=O)[C@H](CCCCN)NC(=O)[C@H](CC(C)C)NC(=O)[C@H](CC(C)C)NC(=O)[C@H](CC(C)C)NC(=O)[C@@H](NC(=O)[C@H](CCCCN)NC(=O)[C@H](CC(=O)O)NC(=O)[C@H](C)NC(=O)[C@@H](NC(=O)[C@H](CCCCN)NC(=O)[C@H](CCCCN)NC(=O)[C@H](CC(=O)O)NC(=O)[C@@H](NC(=O)[C@H](Cc1cnc[nH]1)NC(C)=O)C(C)C)C(C)C)C(C)C)C(=O)N[C@@H](CCSC)C(=O)N[C@@H](CCCN=C(N)N)C(=O)N[C@@H](CC(C)C)C(=O)N[C@@H](CC(C)C)C(=O)N[C@H](C(=O)N[C@@H](CCCN=C(N)N)C(=O)N[C@@H](CC(C)C)C(N)=O)[C@@H](C)O` [HVDKKVADKVLLLKQLRIMRLLTRL], the results for the MIC in [13], in assay [14] and in assay [12] were ≥ 50 µM, 16 µM (≈ 48.7 µg/mL) and ≥ 35 µM, respectively.
On to `CC[C@H](C)[C@H](N)C(=O)N[C@@H](CCCCN)C(=O)N[C@@H](CCCCN)C(=O)N[C@H](C(=O)N[C@@H](Cc1c[nH]c2ccccc12)C(=O)N[C@@H](CO)C(=O)N[C@@H](CCCCN)C(=O)N[C@H](C(=O)N[C@@H](CCCCN)C(=O)N[C@@H](CCCCN)C(=O)N[C@@H](Cc1c[nH]c2ccccc12)C(=O)N[C@@H](CC(C)C)C(=O)N[C@@H](CCCCN)C(=O)O)[C@@H](C)CC)[C@@H](C)CC` [IKKIWSKIKKWLK], for which the MIC in assay [15] was 2.5 µM (≈ 4.25 µg/mL); in assay [16], ≥ 100 µM; in assay [17], 2.5 µM (≈ 4.25 µg/mL); in assay [18], 5 µM (≈ 8.5 µg/mL); in the assay on Bacillus cereus AS1.126, 18.8 µM (≈ 31.9 µg/mL); in assay [19], 2.5 µM (≈ 4.25 µg/mL). For the same molecule, the MIC in assay [20] is ≥ 100 µM; in assay [21], ≥ 100 µM; in assay [22], 15.6 µM (≈ 26.5 µg/mL); against Escherichia coli AS1.349, 2.5 µM (≈ 4.25 µg/mL).
Turning to `CC[C@H](C)[C@H](NC(=O)CNC(=O)[C@H](CCCCN)NC(=O)[C@H](CCCN=C(N)N)NC(=O)[C@@H](NC(=O)[C@@H](NC(=O)[C@H](CCCN=C(N)N)NC(=O)[C@H](CCCN=C(N)N)NC(=O)[C@H](CC(C)C)NC(=O)[C@H](CC(N)=O)NC(=O)[C@H](CCCCN)NC(C)=O)[C@@H](C)CC)[C@@H](C)CC)C(=O)N[C@@H](Cc1cnc[nH]1)C(=O)N[C@H](C(=O)N[C@H](C(=O)N[C@@H](CCCCN)C(=O)N[C@@H](CCCCN)C(=O)N[C@@H](Cc1ccc(O)cc1)C(=O)NCC(N)=O)[C@@H](C)CC)[C@@H](C)CC` [KNLRRIIRKGIHIIKKYG], the MIC in assay [13] is ≥ 100 µM; in assay [11], 12.5 µM (≈ 28.1 µg/mL); against Escherichia coli K91BK it was ≥ 100 µM; in [12] it was ≥ 100 µM.
With `CC[C@H](C)[C@H](NC(=O)[C@@H](N)Cc1c[nH]c2ccccc12)C(=O)N[C@@H](CCC(N)=O)C(=O)N1CCC[C@H]1C(=O)N[C@@H](CCCCN)C(=O)N[C@H](C(=O)N[C@@H](CCCCN)C(=O)N[C@@H](C)C(=O)N[C@H](C(=O)N1CCC[C@H]1C(=O)N[C@@H](Cc1ccc(O)cc1)C(=O)N[C@H](C(=O)N[C@@H](CCCN=C(N)N)C(=O)N[C@@H](Cc1ccc(O)cc1)C(=O)N[C@@H](CC(C)C)C(=O)O)C(C)C)[C@@H](C)CC)[C@@H](C)O` [WIQPKTKAIPYVRYL], the MIC in [23] was 19.5 µM (≈ 36.6 µg/mL); in assay [24], ≥ 78.1 µM.
Turning to `CC[C@H](C)[C@H](NC(=O)[C@@H](N)Cc1c[nH]c2ccccc12)C(=O)N[C@@H](CCC(N)=O)C(=O)N1CCC[C@H]1C(=O)N[C@@H](CCCCN)C(=O)N[C@H](C(=O)N[C@@H](CCCCN)C(=O)N[C@H](C(=O)N[C@H](C(=O)N1CCC[C@H]1C(=O)N[C@@H](Cc1ccc(O)cc1)C(=O)N[C@H](C(=O)O)C(C)C)[C@@H](C)CC)C(C)C)[C@@H](C)O` [WIQPKTKVIPYV], the figures for the MIC in assay [23] and in assay [24] were ≥ 156 µM and ≥ 625 µM, respectively.
